From patent publication US6987132B1, “Enediyne compounds and methods related thereto” (Advanced Research and Technology Institute, Inc., priority 2000, dated 2006)

Tests used:
[1] = Bergman enediyne cyclization temperature by differential scanning calorimetry (DSC) on neat materials; assay type: physicochemical; details: for Cyclization Temperature: free ligand, neat material, DSC, heating rate 10° C. min^−1; for Bergman cyclization temperature: comparison enediynes named in text, method not stated for them
Method: All preparations were carried out in an inert atmosphere (nitrogen) using Schlenk and drybox techniques. Chemicals used in the syntheses were of the highest purity available from Aldrich Chemical Company and used as received. Dichloromethane was dried and distilled from calcium hydride. The organic compounds were purified by flash chromatography with 60 Å Silica gel ([…]) using HPLC grade solvents. ^1H and ^13C NMR were recorded on VXR 400 MHz NMR spectrometer using the residual proton resonance as an internal reference. The multiplicity of the ^13C signals was determined by the DEPT technique. EI and FAB MS spectra were acquired on a Kratos MS-80 mass spectrometer that was interfaced with a Kratos DS90 data system. Differential scanning calorimetry traces were recorded on a General V4.1C DuPont 910 DSC differential scanning calorimeter coupled to a Dupont Thermal Analyst 2100 at a heating rate of 10° C. min^−1.

[2] = Reactivity of enediyne ligand upon addition of metal salts at room temperature; assay type: physicochemical
[3] = Thermal cyclization temperature and stability of free ligands in solution; details: for could tolerate heating to (temperature): free ligand in solution; for thermal cyclization temperature in solution: absence of metal
[4] = Pseudo first-order rate constant and half-life of thermal reactivity in DMSO by 1H NMR; assay type: physicochemical; details: 65° C., 20-fold cyclohexadiene
Description: As is often observed in solution cyclization reactions of enediynes, a series of products was produced, which in this case included di-substituted benzenes, and as such no dominant species could be isolated from the reaction.

Cyclization Temperature [1]	Compound	could tolerate heating to (temperature) [3]	thermal cyclization temperature in solution [3]	Bergman cyclization temperature [1]	other results
	C(#Cc1cccnc1)C=CC#Cc1cccnc1 [1,6-bis(pyridine-3)hex-3-ene-1,5-diyne, reference compound]			195 °C	
186 °C	CN(C)CC#CC=CC#CCN(C)C [Compound 4, 1,8-bis(dimethylamino)oct-4-ene-2,6-diyne]				
106 °C	NCC#CC=CC#CCN [Compound 12, 1,8-diaminooct-4-ene-2,6-diyne]	about 50 °C	about 65 °C		decrease in the Bergman cyclization temperature ([1]; relative to the preceding compound of the series 4, 9, 12): 37 °C; pseudo first-order rate constant kobs [4]: 0.0416 h⁻¹
	C(#CCOc1cccnc1)C=CC#CCOc1cccnc1 [bpod, 1,8-bis(pyridine-3-oxy)oct-4-ene-2,6-diyne, reference compound]			136 °C	

Compound	Cyclization Temperature [1]	could tolerate heating to (temperature) [3]	thermal cyclization temperature in solution [3]	Bergman cyclization temperature [1]	other results
C(#CCN=Cc1ccccn1)/C=C\C#CCN=Cc1ccccn1 (stereo in doubt) [Compound 14, (Z)-N,N′-Bis[1-pyridin-2-yl-meth-(E)-ylidene]oct-4-ene-2,6-diyne-1,8-diamine]	100 °C	about 50 °C	about 55 °C		time to reaction completion ([2]; addition of MgCl2, no additional heating): 2 h; time to reaction completion ([2]; addition of zinc acetate): 0.083 h; observation upon addition of Zn(II) or Cu(II) ([2]; room temperature): turned black instantaneously
